# Measured values taken from US8945639B2, “Treatment of inflammatory bowel disease” (Provexis (IBD) Limited, priority 2003, dated 2015).
# B1: fetuin: fetuin, glycoconjugate tested at 50 μg/ml (protein, UniProt P12763 19-359, looked up)
# Alpha-2-HS-glycoprotein: IPLDPVAGYKEPACDDPDTEQAALAAVDYINKHLPRGYKHTLNQIDSVKVWPRRPTGEVYDIEIDTLETTCHVLDPTPLANCSVRQQTQHAVEGDCDIHVLKQDGQFSVLFTKCDSSPDSAEDVRKLCPDCPLLAPLNDSRVVHAVEVALATFNAESNGSYLQLVEISRAQFVPLPVSVSVEFAVAATDCIAKEVVDPTKCNLLAEKQYGFCKGSVIQKALGGEDVRVTCTLFQTQPVIPQPQPDGAEAEAPSAVPDAAGPTPSAAGPPVASVVVGPSVVAVPLPLHRAHYDLRHTFSGVASVESSSGEAFHVGKTPIVGQPSIPGGPVRLCPGRIRYFKI
# B2: asialofetuin: asialofetuin, glycoconjugate tested at 50 μg/ml (protein, UniProt P12763 19-359, looked up)
# Alpha-2-HS-glycoprotein: B1 Alpha-2-HS-glycoprotein
# modifications: desialylated
# notes: asialofetuin, glycoconjugate tested at 50 μg/ml
# Tested on: agglutinating mucosally-associated E. coli (haemagglutination of human red blood cells)
# Assay: Haemagglutination assays with different oligosaccharides/fibres (Example 1)
# Type: cell-based
# Details: agglutinating E. coli from IBD subjects, 'in all cases', mannose, fucose, galactose 0.4M, fetuin, asialofetuin 50 μg/ml
# Description: Blood was taken from a healthy human volunteer and placed into a heparinised container. The blood was washed three times in PBS by centrifugation at 1000 rpm for 5 minutes and by resuspending the pellet in fresh PBS. After the third wash, the pellet was resuspended in PBS so as to give a 1% red blood cell solution. Bacteria identified as E. coli, and 5 strains of CD-ileal associated E. coli were grown so as to obtain maximum fimbrial expression (see above). Bacteria were suspended in saline to give an OD equal to MacFarland standard 5. Doubling dilutions of bacterial suspension were performed in 96 well U-bottomed haemagglutination plates (Dynex technologies) to a final volume of 100 μl per well. 50 μl of 1% rbcs was added to each well. The plate was tapped gently to mix the contents of the wells and was left at room temperature for approximately 2 hrs.
# Further characterisation of bacterial haemagglutination was carried out using a panel of oligosaccharides/fibers. The structures tested were: mannose (0.4M), fucose (0.4M), galactose (0.4M), fetuin (50 μg/ml), asialofetuin (50 μg/ml), bovine submaxillary mucin (BSM), hydrolysed BSM, ovine submaxilliary mucin (OSM), lactose, lactulose, siayl Tn, GalGalNAc, N-Glycolyneuraminic acid, N-acetylneuraminic acid, 3′-n-acetylneuraminyl-lactose, 6′-n-acetylneuraminyl-lactose, melibiose, plantain, stachyose, milk derived galacto-oligosaccharide, raffinose, pectin, polygalacturonic acid, and paralacto-n-hexaose.
# Soluble fiber (prepared according to 1.1.12.2) and other carbohydrates were tested for their ability to modulate agglutination, attachment and invasion of cells from subjects with IBD.
row,Molecule,inhibition of agglutination
1,OC[C@H]1O[C@@H](O[C@@H]2[C@@H](CO)OC(O)(CO)[C@H]2O)[C@H](O)[C@@H](O)[C@H]1O (mixture of isomers) [lactulose],non-inhibitory
2,CC(=O)N[C@H]1[C@H]([C@H](O)[C@H](O)CO)O[C@@](O[C@H]2[C@@H](O)[C@@H](CO)O[C@@H](O[C@H]3[C@H](O)[C@@H](O)C(O)O[C@@H]3CO)[C@@H]2O)(C(=O)O)C[C@@H]1O (stereo partly shown) [3′-n-acetylneuraminyl-lactose],non-inhibitory
3,CC(=O)NC1C(O)CC(OCC2OC(OC3C(CO)OC(O)C(O)C3O)C(O)C(O)C2O)(C(=O)O)OC1C(O)C(O)CO (stereo not shown) [6′-n-acetylneuraminyl-lactose],non-inhibitory
4,CC(=O)N[C@H]1C(O)O[C@H](CO)[C@H](O)[C@@H]1O[C@@H]1O[C@H](CO)[C@H](O)[C@H](O)[C@H]1O (stereo partly shown) [Galβ1-3GalNAc],non-inhibitory
5,CC(=O)N[C@H]1[C@H]([C@H](O)[C@H](O)CO)OC(O)(C(=O)O)C[C@@H]1O (stereo partly shown) [N-acetylneuraminic acid],non-inhibitory
6,O=C(CO)N[C@H]1[C@H]([C@H](O)[C@H](O)CO)OC(O)(C(=O)O)C[C@@H]1O (stereo partly shown) [N-glycolyneuraminic acid],non-inhibitory
7,C[C@H](O)[C@@H](O)[C@@H](O)[C@H](O)C=O [fucose],non-inhibitory
8,O=C[C@H](O)[C@@H](O)[C@@H](O)[C@H](O)CO [galactose],non-inhibitory
9,OC[C@H]1O[C@@H](O[C@H]2[C@H](O)[C@@H](O)C(O)O[C@@H]2CO)[C@H](O)[C@@H](O)[C@H]1O (stereo partly shown) [lactose],non-inhibitory
10,OC[C@H]1O[C@H](OCC2O[C@@H](O)[C@H](O)[C@@H](O)[C@@H]2O)[C@H](O)[C@@H](O)[C@H]1O (stereo partly shown) [melibiose],non-inhibitory
11,OC[C@H]1O[C@H](OC[C@H]2O[C@H](O[C@]3(CO)O[C@H](CO)[C@@H](O)[C@@H]3O)[C@H](O)[C@@H](O)[C@@H]2O)[C@H](O)[C@@H](O)[C@H]1O [raffinose],non-inhibitory
12,OC[C@H]1O[C@H](OC[C@H]2O[C@H](OC[C@H]3O[C@H](O[C@]4(CO)O[C@H](CO)[C@@H](O)[C@@H]4O)[C@H](O)[C@@H](O)[C@@H]3O)[C@H](O)[C@@H](O)[C@H]2O)[C@H](O)[C@@H](O)[C@H]1O [stachyose],non-inhibitory
13,bovine submaxillary mucin,inhibited
14,paralacto-n-hexaose,non-inhibitory
15,pectin,non-inhibitory
16,polygalacturonic acid,non-inhibitory
17,siaylosyl-Tn,non-inhibitory
18,B1,non-inhibitory
19,B2,non-inhibitory
